Assay results: PubChem BioAssay (NCI)
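A five-concentration, 48-hour dose response in 96-well plates underlies each endpoint, interpolated linearly between surrounding concentrations. TGI: total growth inhibition.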

Legend:
Test in all cases: NCI tumour cell line growth inhibition, 48 h
[1] = test system: NCI-H23 lung
[2] = test system: NCI-H522 lung
[3] = test system: OVCAR-4 ovarian
[4] = test system: EKVX NSCLC
[5] = test system: HCT-116 colon
[6] = test system: MOLT-4 leukemia
[7] = test system: SW-620 colon
[8] = test system: MDA-MB-435
[9] = test system: KM12 colon
[10] = test system: SR leukemia

Compound | TGI [1] [µM] | TGI [2] [µM] | TGI [3] [µM] | TGI [4] [µM] | TGI [5] [µM] | TGI [6] [µM] | TGI [7] [µM] | TGI [8] [µM] | TGI [9] [µM] | TGI [10] [µM]
Clc1cccc(NN=Nc2ccc(-c3nc4ccccc4s3)cc2)c1 | 63.3 | 66.2 | > 100 | > 100 | > 100 | 40.6 | > 100 | > 100 | > 100 | 43
Nc1nc(Cl)cc(NC2(CO)CCC2)n1 | > 100 | > 100 | > 100 | > 100 | > 100 | > 100 | > 100 | > 100 | > 100 | > 100
CCOC(=O)C(NC(=O)c1ccccc1)(N1CCN(c2cc3c(cc2F)c(=O)c(C(=O)O)cn3CC)CC1)C(F)(F)F (stereo not given) | > 100 | 32.4 | > 100 | 49 | > 100 | 54.2 | > 100 | > 100 | 81.3 | 62.5
C=C1CC(Cn2ccc(=O)[nH]c2=O)(c2ccc(Cl)cc2)OC1=O (stereo not given) | 12.8 | 2.26 | 3.61 | 35 | 5.63 | 4.47 | 4.31 | 21 | > 58.4 | 11.7
O=C1CC[C@@]2(O)[C@H]3Cc4ccc(-c5ccccc5)c5c4[C@@]2(CCN3CC2CC2)[C@H]1O5 | 78.9 | 30.1 | > 100 | 52.3 | 32 | 43.5 | 25 | 26.6 | 36.6 | > 100
Cc1cc(=O)n2nc(CCl)sc2n1 | 47.1 | 20 | 32.4 | 36 | 24.9 | 36.3 | 37.5 | 26.3 | 27.4 | 87
CC(C)=CCc1[nH]c2ccccc2c1C1=C(O)C(=O)C(c2c(CC=C(C)C)[nH]c3ccccc23)=C(O)C1=O | 5.87 | 5.58 | 93.1 | 7.59 | 3.78 | 15.4 | 14.9 | 2.39 | 2.82 | 4.44
CCCCCCCCCCCC[C@@H](O)[C@H]1CCC([C@H](O)CCCCC(=O)CCCCCCCC2=C[C@H](C)OC2=O)O1 (stereo not given in full) | > 50 | > 50 | > 50 | > 50 | > 50 | > 50 | > 50 | > 50 | > 50 | 10.1
COC1=CC2(CC(OC)=C1OC)OC21COc2ccccc2C1=O (stereo not given) | > 100 | > 100 | > 100 | > 100 | > 100 | > 100 | > 100 | > 100 | > 100 | 89.7
Nc1ncn2c(n1)nc1ccccc12 | > 100 | > 100 | > 100 | > 100 | > 100 | > 100 | > 100 | > 100 | > 100 | > 100
CC(=O)Oc1ccc2c(c1)CC[C@@H]1C2[C@@H](O[N+](=O)[O-])C[C@@]2(C)C1CC[C@@H]2O[N+](=O)[O-] (stereo not given in full) | 29.2 | 25.4 | 33.3 | 26.6 | 23.2 | 38.4 | 33.1 | 33.5 | 33.4 | 27.7
Cc1cc(S(=O)(=O)Nc2nnc3cnc4ccccc4n23)c(S)cc1Cl | > 100 | > 100 | > 100 | > 100 | > 100 | > 100 | > 100 | > 100 | > 100 | > 100
O=C(NC(=O)c1cc(-c2ccccc2)n[nH]1)c1ccccc1 | > 100 | > 100 | > 100 | > 100 | > 100 | > 100 | > 100 | > 100 | > 100 | 79.2
NCC(O)CNC(=O)c1ccc(-c2ccc(-c3ccc(C(=O)NCC(O)CN)cc3)o2)cc1 (stereo not given) | > 100 | > 100 | > 100 | 70.3 | 52.4 | > 100 | > 100 | > 100 | > 100 | > 100
CC(=O)Oc1c2c(c3n(c1=O)CCCC3)C(=O)N(c1ccccc1)C2=O | > 100 | > 100 | > 100 | > 100 | > 100 | > 100 | > 100 | > 100 | > 100 | > 100
COC1=CC(=O)CC(C)C12Oc1c(Cl)c(OC)cc(OC)c1C2=O (stereo not given) | > 100 | 23.1 | > 100 | > 100 | > 93.7 | > 100 | > 100 | 6.42 | > 100 | > 28.2
COc1ccc(N=NC(=O)NC(CC(C)C)C(N)=O)cc1 (stereo not given) | > 100 | > 100 | > 31.6 | > 100 | > 31.6 | > 100 | > 100 | > 100 | > 100 | > 100
